{"source": "patent US8932818B2", "about": "“Screening assays for compounds that modulate programmed ribosomal frameshifting” (PTC Therapeutics, Inc., priority 2008, dated 2015)", "system": "HIV-1 frameshift signal sequence", "experiment": "dual luciferase assay for viral programmed ribosomal frameshifting", "assay_type": "cell-based", "excerpt": "For example, the ability of a compound to modulate the efficiency of viral programmed ribosomal frameshifting can be validated in a dual luciferase assay comprising: (a) contacting a compound with a host cell expressing a nucleic acid construct comprising in 5′ to 3′ order: (i) a promoter sequence; (ii) the Renilla luciferase (rluc) gene; (iii) the HIV-1 frameshift signal sequence; (iv) the firefly luciferase gene (flue); and (v) a polyadenylation sequence; and (b) detecting the activity of Renilla luciferase versus that of firefly luciferase, wherein a compound that modulates the efficiency of programmed ribosomal frameshifting is validated if (i) the activity of Renilla luciferase in the presence of the compound is not changed relative to the activity of Renilla luciferase detected in the absence of the compound; and (ii) the activity of firefly luciferase detected in the presence of the compound is changed relative to the activity of firefly luciferase detected in the absence of the compound. In other words, the ratio of Renilla luciferase to firefly luciferase is changed in the presence of the compound relative to the absence of the compound.\nThe ability of Compound 1 to modulate the efficiency of viral programmed ribosomal frameshifting was measured using a dual luciferase assay (as described in Biswas, et al., 2004, J. Virol. 78(4):2082-2087).", "data": [{"smiles": "COc1ccc2c(c1)C(=O)N(c1ccc(C(C)C)cc1)C2", "note": "[Compound 1, 2-(4-isopropylphenyl)-6-methoxyisoindolin-1-one]", "values": [{"measurement": "modulates the efficiency of viral programmed ribosomal frameshifting", "setting": "dual luciferase assay", "value": "modulates the efficiency of viral programmed ribosomal frameshifting"}, {"measurement": "inhibition in luciferase activity relative to negative control", "setting": "relative to 0.5% DMSO, average at compound test concentration approximately 5 μM to approximately 130 μM (FIG. 1)", "value": "approximately 5 fold"}]}]}
